Here are results for 7 compounds from publication PMC8224630, “Cytotoxicity and Nitric Oxide Production Inhibitory Activities of Compounds Isolated from the Plant Pathogenic Fungus Curvularia sp” (Journal of Fungi, 2021).

Like-named read-outs stand apart in the source and are kept apart here. Bounds are passed on as bounds.

The nature of series [1]: Cytotoxicity assay against leukemic K562 cells, MTT. Conditions: human, K562 leukemic cells.
Method: (§1) Lung cancer A549 and colorectal cancer SW480 cells were maintained with Dulbecco’s modified Eagle’s medium (DMEM) containing 10% fetal bovine serum (FBS) and 1% penicillin/streptomycin. Leukemic K562 cells were cultured in RPMI-1640 supplemented with 10% fetal bovine serum (FBS) and 1% penicillin/streptomycin. All cells were cultured in 96-well plates at 37 °C in 5% CO2, followed by treatment with the sample for 24 h. After the incubation period, 0.5 mg/mL MTT was added to the cells and left for 4 h. The formazan was dissolved in DMSO and measured at 570 nm using Biochrom EZ Read 400 ELISA microplate reader (Biochrom Ltd., Cambridge, UK).
Series [2] in a line: Cytotoxicity assay in mammalian cells (RAW 264.7), MTT. Conditions: mouse, RAW 264.7 cells.
Method: (§2) Cell viability was measured by the MTT assay. RAW 264.7 cells were seeded at 4 × 10^4 cells/well in 96-well plates and incubated at 37 °C and 5% CO2 overnight. Cells were treated with different concentrations of tea extracts, including 3.125, 6.25, 12.5, 25, 50, and 100 µg/mL, for 24 h. After 24 h, cells were washed with PBS and incubated with 0.5 mM MTT reagent for 4 h. The detection of formazan at 570 nm was performed with a Biochrom EZ Read 400 ELISA microplate reader (Biochrom Ltd., Cambridge, UK). The data were calculated as IC50 values with GraphPad Prism 6.0 software.
The nature of series [3]: Cytotoxicity assay against lung cancer A549 cells, MTT. Conditions: human, A549 lung cancer cells.
Method: as §1
Series [4] can be described thus: Cytotoxicity assay against colorectal cancer SW480 cells, MTT. Conditions: human, SW480 colorectal cancer cells.
Method: as §1
Series [5] concerns nitric oxide (NO) production in RAW 264.7 cells. Put plainly: Nitric oxide (NO) production inhibitory assay, LPS-stimulated RAW 264.7 cells, Griess reagent. In kind it is cell-based. Conditions: for inhibition at 100 µg/mL: read-out: % of NO Inhibition at 100 µg/mL; for IC50: read-out: NO Production Inhibition IC50. The protocol: This assay was performed as previously described. […] After 24 h, 100 µL of Griess reagent was added to the samples for 10 min. […] Additionally, the data are presented as the IC50, which was calculated with GraphPad Prism 6.0 software.
Background: Griess reagent forms a coloured azo dye with nitrite.

The test system of series [6] is leukemic K562 cells. Briefly: Cytotoxicity assay against leukemic K562 cells, MTT. Conditions: Homo sapiens, K562, 24 h, read-out: IC50 cytotoxicity K562 (Leukemic Cells).
Method: as §1
In series [7] the test system is lung cancer A549 cells. Put plainly: Cytotoxicity assay against lung cancer A549 cells, MTT. Conditions: Homo sapiens, A549, 24 h, read-out: IC50 cytotoxicity A549 (Lung Cancer).
Method: as §1
For series [8], the system named is colorectal cancer SW480 cells. Put plainly: Cytotoxicity assay against colorectal cancer SW480 cells, MTT. Conditions: Homo sapiens, SW480, 24 h, read-out: IC50 cytotoxicity SW480 (Colorectal Cancer).
Method: as §1
Series [9] in a line: in vitro. Conditions: mouse.
Method: as §2
Series [10] concerns lung cancer (A549) cell line. On the set-up: method as in doi:10.1007/s10600-015-1259-y. Conditions: 30 µg/mL; cited from earlier work.
Setting [11] is: Mus musculus, RAW264.7, 100 µg/mL, LPS 1 µg/mL, 24 h.
Where [12] appears, read: Mus musculus, RAW264.7, LPS 1 µg/mL, 24 h.

For the compound `CC[C@H](C)[C@@H](OC(C)=O)[C@@H](C)C1=C(N)C(=O)C2=C(O[C@]3(C)CC[C@H]4O[C@@H](C(C)(C)O)CC[C@]4(C)[C@H]3[C@@H]2O)C1=O` [Compound 1, cochlioquinone N], the melting point is 185 to 187 °C. Further, the viability at 24 h, 100 µg/mL in series [1] came out at 81.1 ± 3.8%. The same compound returned a viability at 24 h, 100 µg/mL in [2] of 97.14 ± 0.81%. In addition, the viability at 24 h, 100 µg/mL in [3] worked out at 88.5 ± 1.19%. For the same compound, the viability at 24 h, 100 µg/mL in series [4] amounted to 82.6 ± 1.68%. Further, in [5] (setting [11]), the inhibition at 100 µg/mL is 51.3 ± 1.65%. In series [5] (setting [12]), the IC50 was 53.7 µM.
Consider `CC[C@H](C)[C@@H](OC(C)=O)[C@@H](C)C1=CC(=O)C2=C(O[C@]3(C)CC[C@H]4O[C@@H](C(C)(C)O)CC[C@]4(C)[C@H]3[C@@H]2O)C1=O` [Compound 2, cochlioquinone A], for which the viability at 24 h, 6.25 µg/mL was 71 ± 1.69% in series [1], 28.5 ± 1.98% in series [2], 73.1 ± 1.09% in series [3] and 30.8 ± 0.4% in series [4]. Besides, the viability at 24 h, 12.5 µg/mL in series [1] was determined as 38.4 ± 3.18%; in series [2], 16.6 ± 0.52%; in series [3], 23.1 ± 1.84%; in series [4], 23.4 ± 0.25%. Also, the viability at 24 h, 25 µg/mL stood at 21 ± 2.61% in series [1], 15 ± 0.29% in series [2], 17.9 ± 1.93% in series [3] and 17.6 ± 0.7% in [4]. In addition, the viability at 24 h, 50 µg/mL in series [1] was 13.3 ± 0.89%; in series [2] it was 11.67 ± 0.08%; in series [3], 14.8 ± 2.54%; in series [4], 15.6 ± 0.77%. The viability at 24 h, 100 µg/mL turned out to be 12.5 ± 1.24% in series [1], 10.8 ± 0.09% in [2], 13.4 ± 0.48% in series [3] and 14.9 ± 0.57% in series [4]. Also, the IC50 is 17.6 µM in series [6], 14.3 µM in series [7] and less than 11.7 µM in [8]. Also, the IC50 at 24 h in series [2] was less than 11.7 µM.
In the case of `C/C=C(\C)[C@@H](OC(C)=O)[C@@H](C)C1=CC(=O)C2=C(O[C@]3(C)CC[C@H]4O[C@@H](C(C)(C)O)CC[C@]4(C)[C@H]3[C@@H]2O)C1=O` [Compound 3, stemphone], the viability at 24 h, 100 µg/mL in [9] is 71.4 ± 2.67%. Further, in series [5] (Mus musculus, RAW264.7, 24 h), the inhibition at 100 µg/mL is 73.41 ± 0.44% and the IC50 amounted to 32.8 µM.
`CC[C@H](C)[C@@H](OC(C)=O)[C@@H](C)C1=CC(=O)C2=C(O[C@]3(C)CC[C@H]4O[C@@H](C(C)(C)O)CC[C@]4(C)C3=C2)C1=O` [Compound 4, anhydrocochlioquinone A]: in series [1], the viability at 24 h, 6.25 µg/mL was determined as 19.5 ± 2.62%; the viability at 24 h, 12.5 µg/mL stood at 14 ± 2.31%; the viability at 24 h, 25 µg/mL was 12.9 ± 0.34%; the viability at 24 h, 50 µg/mL was determined as 11.3 ± 0.4%. Further, the viability at 24 h, 100 µg/mL in series [1] is 10.6 ± 0.2%. Besides, in series [6], the IC50 was less than 12.1 µM. In series [2], the half-maximal inhibitory concentration (IC50) at 24 h was less than 12.1 µM; the viability at 24 h, 6.25 µg/mL amounted to 14.3 ± 0.73%; the viability at 24 h, 12.5 µg/mL is 12.4 ± 0.47%; the viability at 24 h, 25 µg/mL turned out to be 12.1 ± 0.42%. In [2], the viability at 24 h, 50 µg/mL was found to be 12.8 ± 0.7% and the viability at 24 h, 100 µg/mL is 11.1 ± 0.43%. Also, in series [3], the viability at 24 h, 6.25 µg/mL came to 12.4 ± 0.17%; the viability at 24 h, 12.5 µg/mL is 11.6 ± 1.05%; the viability at 24 h, 25 µg/mL turned out to be 10.2 ± 0.17%; the viability at 24 h, 50 µg/mL turned out to be 9.35 ± 0.52%. Moreover, in series [3], the viability at 24 h, 100 µg/mL is 8.4 ± 0.58%. Further, the IC50 in [7] was less than 12.1 µM. Also, the IC50 in series [8] was less than 12.1 µM. In addition, in series [4], the viability at 24 h, 6.25 µg/mL was found to be 17.3 ± 0.33%; the viability at 24 h, 12.5 µg/mL was 15.6 ± 0.39%; the viability at 24 h, 25 µg/mL amounted to 15.4 ± 0.42%; the viability at 24 h, 50 µg/mL stood at 14.7 ± 0.24%. The compound also came in with a viability at 24 h, 100 µg/mL in series [4] of 14.4 ± 0.4%. Besides, the “inhibition ratio, cytotoxicity against A549” value in series [10] is 41%.
As to `CCCC1C2=C(CCC3C(=O)OC(=O)C3=CC1CC)C(=O)OC2=O` (stereo not shown) [Compound 5, curvulariahawadride], the IC50 in series [5] (LPS 1 µg/mL, 24 h) came to 12.8 µM; in series [5] (Mus musculus, RAW264.7, 24 h, LPS 1 µg/mL, 24 h), 12.9 µM. The inhibition at 100 µg/mL in series [5] (setting [11]) amounted to 74 ± 1.14%.
Take `C/C1=C\C[C@]2(C)C(=O)C(O)=C([C@H](C)CO)[C@H]2C/C=C(\C)[C@@H](O)CC/C(C)=C/CC1` [Compound 6, terpestacin]: the viability at 24 h, 100 µg/mL in series [1] is 99.2 ± 3.84%; in series [2] it was 99.3 ± 2.51%; in [3], 92 ± 3.75%; in series [4], 97.7 ± 1.04%. Besides, the “NO Production Inhibition IC50” value in series [5] (LPS 1 µg/mL, 24 h) was “inactive”. Besides, the inhibition at 100 µg/mL in series [5] (setting [11]) was 41 ± 3.36%.
With `COc1ccc2c(c1)c(CC(=O)O)c(C)n2C(=O)c1ccc(Cl)cc1` [Indomethacin, reference compound], the inhibition at 100 µg/mL in series [5] (setting [11]) was found to be 77.45 ± 0.28%. Moreover, in series [5] (setting [12]), the IC50 came to 73.4 µM.

In general, viability refers to a read-out of living cells in per cent, often relative to untreated cells. The low end stands for more harm to the cells, the high end for less harm to the cells. Usually melting point stands for the temperature, or range, at which the solid turns liquid. A word on the IC50: it is the concentration that gives 50% inhibition.
